The values below come from US20190070140A1, “COMPOSITION COMPRISING PROTECTIN DX AS ACTIVE INGREDIENT FOR PREVENTING OR TREATING HYPERLIPIDEMIA OR FATTY LIVER DISEASE” (Solvit P&F, priority 2017, published 2019).

For one assay, the system named is IRE-1, eIF2α and CHOP. The experiment in a line: Western-blot assay of phosphorylation and expression of ER stress markers in palmitate-treated HepG2 cells. It counts as cell-based, Human. The settings on record: for expression of ER stress markers IRE-1, eIF2α and CHOP: FIG. 2A. The method, then: Human liver cells, that is, HepG2 cells (ATCC, Manassas, Va., USA) were cultured in high-glucose Dulbecco's modified eagle medium (DMEM, Invitrogen, Carlsbad, Calif., USA), which includes 10% fetal bovine serum (FBS, Invitrogen), 100 units/mL of penicillin and 100 μg/ml of streptomycin. The cells were incubated at 37° C. under a condition of 5% CO2. Mycoplasma was not detected in HepG2 cells. PDX (Cayman Chemical, Ann Arbor, Mich., USA) was dissolved in ethanol. Sodium palmitate (Sigma, St. Louis, Mo., USA) was mixed with 2% BSA (fatty acid free level; Sigma) in DMEM. […] In all experiments, the cells were treated with palmitate-BSA and PDX for 24 hours, while 2% BSA-ethanol was used as a control group. After collecting HepG2 cells, protein was extracted from the cells with a buffer (PRO-PREF; Intron Biotechnology, Seoul, Korea) at 4° C. for 1 hour. A protein sample (35 μg) was applied to 12% SDS-PAGE, transferred to a nitrocellulose film (Amersham Bioscience, Westborough, Mass., USA), detected with a primary antibody, followed by probing with a secondary antibody and another secondary antibody conjugated with horseradish […] (Santa Cruz Biotechnology). The sample was detected by ECL kit. Under 70% comfluency, 0 to 20 nmol/L […] (si)RNA oligonucleotide to ORP150 purchased from Santa Cruz Biotechnology was transfected to inhibit gene expression. Scramble siRNA was used as a control group. 2 or 4 μg of pCMV3-ORP150 (Sino Biological, Beijing, China) was transiently transfected, leading to over-expression of ORP150. pCMV3 empty-vector was used as a control group. According to instruction of the manufacturer, transfection was executed using lipofectamine 2000 (Invitrogen).

Another assay relates to FOXO1. The experiment in a line: Western-blot assay of FOXO1 acetylation in HepG2 cells (immuno-precipitation). The settings on record: 0 to 2 μM PDX, 24 hours, FIG. 3B. It counts as cell-based, Human. The method, then: After collecting HepG2 cells, protein was extracted from the cells with a buffer (PRO-PREF; Intron Biotechnology, Seoul, Korea) at 4° C. for 1 hour. A protein sample (35 μg) was applied to 12% SDS-PAGE, transferred to a nitrocellulose film (Amersham Bioscience, Westborough, Mass., USA), detected with a primary antibody, followed by probing with a secondary antibody and another secondary antibody conjugated with horseradish […] (Santa Cruz Biotechnology). The sample was detected by ECL kit. Whole protein of HepG2 cell was extracted using an immune-precipitation buffer (IP buffer: 50 mM Tris-HCl, pH 7.8, 150 mM NaCl, 1% IGEPAL CA630) and then diluted to a concentration of 1 mg/mL. A polyclonal antibody to FOXO1 (Santa Cruz Biotechnology) diluted 1:150 was added to the mixture and the sample was incubated at 4° C. overnight. After incubation, each of the samples was provided with 50 μL of a protein A/G-Sepharose bead suspension (Santa Cruz Biotechnology), followed by gently mixing the same at 4° C. for 1 hour. The treated samples were subjected to centrifugation at 12,000 rpm for 30 seconds; and the beads were washed in IP buffer three times. The isolated beads were suspended again in 1×SDS-PAGE loading buffer, heated at 95° C. for 5 minutes, followed by vortexing and flash-centrifugation. […]

For a further assay, the system named is HFD diet mouse. The assay can be described thus: Hepatic steatosis in HFD diet mouse: H&E and Oil-Red-O staining, TG analysis kit. It counts as in vivo. To be noted: HFD mice, PDX i.p. 1 μg/mice/day for 8 weeks. The method, then: (§1) The present study has received the approval of the Institutional Animal Review Committee (Institutional Animal Care and Use Committee in Korea University, Seoul, Korea). The animal experiment was conducted according to the Guide for Care and Use of Laboratory Animals (NH publication, 8th Ed., 2011). A control group and a group of male C57BL/6J(B6) mice at 8 weeks of age were subjected to a normal diet (ND, Brogaarden, Gentofte, Denmark) and a high fat diet (HFD, Research Diets, New Brunswick, N.J., USA) for 8 weeks, respectively. The HFD (high fat diet) group was provided with intra-peritoneal injection of PDX for 8 weeks (1 μg/mice/day). An ethanol injection group was used as a control group.
HepG2 cells and a cut section of the liver in a mouse were stained by Oil-Red-O staining method, in order to determine cellular triglyceride such as triglyceride, that is, TG. The liver cells were fixed with 10% formalin for 40 minutes, and then stained with Oil-Red-O solution (Sigma) at 37° C. for 1 hour. A content of Oil-Red-O stained TG was quantified by adding isopropanol to each of the samples. The mixture was gently stirred at 25° C. for 8 minutes. Lastly, 100 μl of isopropanol-extracted sample was analyzed by a spectrophotometer at 510 nm.
Total lipids were extracted using a mixture of 2:1 chloroform:methanol (2:1, v/v). An organic layer was dissolved in 60% methanol immediately after drying the same. The extracted TG was measured by a colormetric TG analysis kit according to instructions of the manufacturer (Biovision, Milpitas, Calif., USA).
The present inventors have assessed PDX effects upon lipid accumulation in a mouse. For this purpose, a liver cut section from a mouse was subjected to histological assay and western-blot assay through H&E staining and Oil-Red-O staining, while TG accumulation was measured using a TG analysis kit.

Assay [1] can be described thus: Body weight, liver weight and epididymal fat content of HFD mice. In kind it is in vivo, mouse. To be noted: PDX i.p. 1 μg/mice/day for 8 weeks, compared to HFD diet mice. The method, then: as §1, with “group. According to the above experimental procedures conducted for 8 weeks, the present inventors measured body weights, daily energy intakes, liver weights and epididymal fat contents, with respect to five mice per group.” for “group.”

The test system of another assay is influenza virus. The settings on record: through RNA export system; reported; cited from earlier work.

For the molecule `CC/C=C\C[C@H](O)/C=C/C=C\C=C\[C@@H](O)C/C=C\C/C=C\CCC(=O)O` [PDX, 10S,17S-dihydroxy-docosa-4Z,7Z,11E,13Z,15E,19Z-hexaeonic acid], the “expression of ER stress markers IRE-1, eIF2α and CHOP” value in the assay with IRE-1, eIF2α and CHOP (palmitate + PDX + siORP150 (ORP150 silencing)) is given as “increased again”; with IRE-1, eIF2α and CHOP (scramble siRNA + palmitate + PDX), “reduced”. Moreover, the “phosphorylation and expression of ER stress markers IRE-1, eIF2α and CHOP” value with IRE-1, eIF2α and CHOP (palmitate-induced, 24 hours, FIG. 1C) was “significantly decreased depending upon a dose of PDX”. The “PDX effects of reducing FOXO1 acetylation” value in the assay on FOXO1 (HepG2 cells transfected with AMPK siRNA) is “inhibited”. Moreover, the FOXO1 acetylation result in the assay on FOXO1 (HepG2 cells, scramble siRNA) is “reduced depending upon PDX concentration”. Besides, in the assay on HFD diet mouse (compared to HFD diet group, FIG. 5A left), the “intracellular fat deposit rate (stained liver cut section)” value is “decrease”. Also, the “accumulation of triglyceride in the liver” value in the assay on HFD diet mouse (vs HFD, FIG. 5A) is given as “considerably reduced”. The “hepatic fibrosis (stained liver cut section)” value in the assay on HFD diet mouse (FIG. 5A left) is given as “very little hepatic fibrosis”. Also, the body weights entry in assay [1] (FIG. 6A) is “significantly reduced”. In addition, the liver weights result in assay [1] (FIG. 6C) is recorded as “significantly decreased”. Further, the epididymal fat contents result in assay [1] (FIG. 6D) is “significantly decreased”. The “replication of influenza virus” value in the assay with influenza virus is recorded as “inhibits”.
